Reference: PubChem BioAssay AID248 (DTP/NCI, 2004)
“And” between values parts separate entries of the source, which are not always exact repeats. Equal entries are not always repeated. Toxic doses and inconclusive results are not listed. No stated cut-off is given here; in the data, active means T/C of 150% or more; inactive means T/C below 125%.

Test system: L1210 leukemia ip in BDF1 mice, survival T/C
Experiment: NCI In Vivo Anticancer Drug Screen. Data for tumor model L1210 Leukemia (intraperitoneal) in B6D2F1 (BDF1) mice
Settings: endpoint: mean survival time, higher = longer survival
In short: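 Value reflects the ratio of survival in compound-treated mice to survival in vehicle-treated controls, with both groups carrying the same transplanted tumor.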

[1] = dose: 25.0 mg/kg/injection, schedule: Q04DX003 (ip), vehicle: saline
[2] = dose: 50.0 mg/kg/injection, schedule: Q04DX003 (ip), vehicle: saline
[3] = dose: 100.0 mg/kg/injection, schedule: Q01DX001 (ip), vehicle: carboxymethylcellulose (CMC)
[4] = dose: 100.0 mg/kg/injection, schedule: Q04DX003 (ip), vehicle: saline
[5] = dose: 100.0 mg/kg/injection, schedule: Q04DX003 (ip), vehicle: Klucel (hydroxypropylcellulose) (HPC)
[6] = dose: 200.0 mg/kg/injection, schedule: Q04DX003 (ip), vehicle: Klucel (hydroxypropylcellulose) (HPC)
[7] = dose: 400.0 mg/kg/injection, schedule: Q04DX003 (ip), vehicle: Klucel (hydroxypropylcellulose) (HPC)
[8] = dose: 25.0 mg/kg/injection, schedule: Q01DX009 (ip), vehicle: Klucel (hydroxypropylcellulose) (HPC)
[9] = dose: 100.0 mg/kg/injection, schedule: Q01DX009 (ip), vehicle: Klucel (hydroxypropylcellulose) (HPC)
[10] = dose: 25.0 mg/kg/injection, schedule: Q01DX009 (ip), vehicle: saline
[11] = dose: 50.0 mg/kg/injection, schedule: Q01DX009 (ip), vehicle: saline
[12] = dose: 50.0 mg/kg/injection, schedule: Q04DX002 (ip), vehicle: saline with Tween-80
[13] = dose: 100.0 mg/kg/injection, schedule: Q01DX009 (ip), vehicle: saline
[14] = dose: 100.0 mg/kg/injection, schedule: Q04DX002 (ip), vehicle: saline with Tween-80
[15] = dose: 100.0 mg/kg/injection, schedule: Q01DX001 (ip), vehicle: saline
[16] = dose: 200.0 mg/kg/injection, schedule: Q01DX001 (ip), vehicle: saline
[17] = dose: 50.0 mg/kg/injection, schedule: Q01DX001 (ip), vehicle: saline
[18] = dose: 400.0 mg/kg/injection, schedule: Q01DX001 (ip), vehicle: saline

Measured: T/C

NNS(=O)(=O)c1ccccc1
inactive: [1] 101 % of control | dose: 50.0 mg/kg/injection, schedule: Q01DX001 (ip), vehicle: carboxymethylcellulose (CMC) 101 % of control | [2] 101 % of control | [3] 92 % of control | [4] 103 % of control

CC(C)=CCCNC(=O)NS(=O)(=O)c1ccc(C)cc1
inactive: [5] 99 % of control | [6] 101 % of control | [7] 97 % of control

O=C(Nc1ccc(Cl)c(C(F)(F)F)c1)Oc1cccnc1
inactive: [8] 94 % of control | [9] 92 % of control and 93 % of control

CONP(=O)(Oc1ccccc1)Oc1ccccc1
inactive: [3] 95 % of control | dose: 200.0 mg/kg/injection, schedule: Q01DX001 (ip), vehicle: carboxymethylcellulose (CMC) 95 % of control | dose: 400.0 mg/kg/injection, schedule: Q01DX001 (ip), vehicle: carboxymethylcellulose (CMC) 97 % of control

CN(C)CCC(=O)/C=C\c1ccccc1
inactive: [10] 91 % of control | dose: 25.0 mg/kg/injection, schedule: Q04DX002 (ip), vehicle: saline with Tween-80 105 % of control | [1] 89 % of control | [11] 88 % of control | [12] 98 % of control | [2] 90 % of control | [13] 88 % of control | [14] 88 % of control | [4] 89 % of control

CCN(CC)CC(Cl)COc1ccccc1C (stereo not given)
inactive: [15] 91 % of control | [16] 94 % of control

Cc1ccc([N+](=O)[O-])cc1P(=O)(O)c1cc([N+](=O)[O-])ccc1C
inactive: dose: 100.0 mg/kg/injection, schedule: Q01DX001 (ip), vehicle: acetone 94 % of control | dose: 100.0 mg/kg/injection, schedule: Q04DX003 (ip), vehicle: acetone 103 % of control | dose: 200.0 mg/kg/injection, schedule: Q01DX001 (ip), vehicle: acetone 94 % of control | dose: 200.0 mg/kg/injection, schedule: Q04DX003 (ip), vehicle: acetone 92 % of control | dose: 400.0 mg/kg/injection, schedule: Q01DX001 (ip), vehicle: acetone 93 % of control | dose: 400.0 mg/kg/injection, schedule: Q04DX003 (ip), vehicle: acetone 100 % of control

CCN(CC)CCCNc1nnc2c(=O)n(C)c(=O)n(C)c2n1
inactive: dose: 75.0 mg/kg/injection, schedule: Q04DX003 (ip), vehicle: saline 112 % of control | dose: 150.0 mg/kg/injection, schedule: Q04DX003 (ip), vehicle: saline 93 % of control | dose: 300.0 mg/kg/injection, schedule: Q04DX003 (ip), vehicle: saline 100 % of control

Nc1nc(=S)c2[nH]c(N=Nc3ccc(S(=O)(=O)Nc4nccs4)cc3)nc2[nH]1
inactive: dose: 6.25 mg/kg/injection, schedule: Q01DX009 (ip), vehicle: Klucel (hydroxypropylcellulose) (HPC) 92 % of control | dose: 12.5 mg/kg/injection, schedule: Q01DX009 (ip), vehicle: Klucel (hydroxypropylcellulose) (HPC) 92 % of control | [8] 100 % of control | dose: 35.0 mg/kg/injection, schedule: Q01DX001 (ip), vehicle: Klucel (hydroxypropylcellulose) (HPC) 119 % of control | dose: 100.0 mg/kg/injection, schedule: Q01DX001 (ip), vehicle: Klucel (hydroxypropylcellulose) (HPC) 123 % of control | [9] 88 % of control

CN(CC#N)CC#N
inactive: [10] 105 % of control | [11] 95 % of control

COC(=O)CC(C(=O)OC)N1CC1 (stereo not given)
inactive: dose: 75.0 mg/kg/injection, schedule: Q01DX001 (ip), vehicle: carboxymethylcellulose (CMC) 101 % of control

CC(C)CC(N)C(=O)OCc1ccccc1 (stereo not given)
inactive: [13] 105 % of control | [4] 97 % of control | dose: 200.0 mg/kg/injection, schedule: Q01DX009 (ip), vehicle: saline 107 % of control | dose: 200.0 mg/kg/injection, schedule: Q04DX003 (ip), vehicle: saline 101 % of control | dose: 400.0 mg/kg/injection, schedule: Q01DX009 (ip), vehicle: saline 98 % of control | dose: 400.0 mg/kg/injection, schedule: Q04DX003 (ip), vehicle: saline 97 % of control

CC(C)(N)CBr
inactive: dose: 100.0 mg/kg/injection, schedule: Q04DX002 (ip), vehicle: saline 100 % of control | dose: 200.0 mg/kg/injection, schedule: Q04DX002 (ip), vehicle: saline 113 % of control | dose: 400.0 mg/kg/injection, schedule: Q04DX002 (ip), vehicle: saline 95 % of control

CCC(C)C(C(=O)OCCN(C)C)c1ccccc1 (stereo not given)
inactive: dose: 100.0 mg/kg/injection, schedule: Q04DX003 (ip), vehicle: saline with Tween-80 98 % of control | dose: 200.0 mg/kg/injection, schedule: Q04DX003 (ip), vehicle: saline with Tween-80 92 % of control

Cc1ncc(O)c(CO)c1O
inactive: [17] 108 % of control | [15] 96 % of control | [16] 96 % of control | [18] 96 % of control

COc1cccc(C=NC2CC(C)CCC2C)c1OC (stereo not given)
inactive: [12] 90 % of control | [14] 93 % of control | dose: 200.0 mg/kg/injection, schedule: Q04DX002 (ip), vehicle: saline with Tween-80 87 % of control | dose: 400.0 mg/kg/injection, schedule: Q04DX002 (ip), vehicle: saline with Tween-80 90 % of control

C1C2CC3C1C1CN3C21 (stereo not given)
inactive: dose: 6.25 mg/kg/injection, schedule: Q01DX001 (ip), vehicle: saline 100 % of control | dose: 12.5 mg/kg/injection, schedule: Q01DX001 (ip), vehicle: saline 97 % of control | dose: 25.0 mg/kg/injection, schedule: Q01DX001 (ip), vehicle: saline 111 % of control

C1=CC2(C=C1)OC21CCC2(C=CC3(C2)OC3C2CCCCC2)CC1 (stereo not given)
inactive: dose: 50.0 mg/kg/injection, schedule: Q01DX009 (ip), vehicle: saline with Tween-80 94 % of control | dose: 100.0 mg/kg/injection, schedule: Q01DX009 (ip), vehicle: saline with Tween-80 94 % of control

O=[N+]([O-])c1ccc(NCCO)cc1
inactive: [17] 96 % of control | [15] 96 % of control | [16] 102 % of control | [18] 96 % of control

CC1OC(OC2CCC3(C=O)C4CCC5(C)C(C6=CC(=O)OC6)CCC5(O)C4CCC3(O)C2)C(O)C(O)C1O (stereo not given)
inactive: dose: 3.0 mg/kg/injection, schedule: Q01DX001 (ip), vehicle: carboxymethylcellulose (CMC) 96 % of control | dose: 6.0 mg/kg/injection, schedule: Q01DX001 (ip), vehicle: carboxymethylcellulose (CMC) 98 % of control

CCCCCCCCC/C(C)=N\NC(=O)c1ccccc1
inactive: [5] 105 % of control | [6] 92 % of control | [7] 97 % of control
